Source: patent US6562954B1, “Method for producing oligosaccharide, and novel oligosaccharide and pharmaceutical composition containing the same” (Seikagaku Corporation, priority 1999, dated 2003)

Columns and labels:
[1] = system: normal mice; assay type: in vivo; conditions: for body weight thereafter: all mice, 2,000 mg/kg i.v. once, after the next day up to 14 days; for body weight on the next day of the administration: male mice, 2,000 mg/kg i.v. once; for general condition immediately after the administration: mice, 2,000 mg/kg i.v. once; for death: mice, male and female groups, 2,000 mg/kg i.v. once, observed 14 days
Experimental: From the above results, the least fatal dose of K4 and G4L4 for single intravenous administration is considered to be 2,000 mg/kg or higher. Therefore, LD50 of K4 and G4L4 for single intravenous administration exceeds 2,000 mg/kg for both of male and female mice.

[2] = system: Guinea pigs; assay: Test for antigenicity in guinea pigs (active systemic anaphylaxis); assay type: in vivo; conditions: sensitized s.c., induced i.v.
Experimental: Guinea pigs were sensitized by 3 times of subcutaneous administration of K4 or G4L4 alone or an emulsion of K4 with an immunostimulant, Freund's complete adjuvant (FCA). K4 or G4L4 was intravenously administered to the animals 12 days after the final sensitization to induce active systemic anaphylaxis. As a positive control, a similar test was performed for ovalbumin (OVA).
The results of the above test were shown in Table 1 together with the doses of the test substances. […] From the above results, K4 and G4L4 are not considered to induce active systemic anaphylaxis in guinea pigs.

[3] = system: guinea pig neutrophils; assay: Effect on O2− generation by guinea pig neutrophils induced by FMLP stimulation; assay type: cell-based; conditions: for relative inhibition rate to the control of O2− generation: 1 mg/ml, preincubation 37° C. 1 hour; for suppression of O2− generation by neutrophils (in words): 0.01 to 1 mg/ml
Experimental: A 0.2% aqueous solution of glycogen in physiological saline was autoclaved, and 20 ml of the solution was intraperitoneally administered to a Hartley female guinea pig. The animal was killed by exsanguination 16 hours later, 20 ml of physiological saline containing 10 U/ml of heparin was injected into the abdominal cavity, and the peritoneal exudate was collected. The exudate was centrifuged at 1000 rpm for 10 minutes on a desk-top centrifugal machine, and purified water was added to the precipitate to cause hemolysis for 30 seconds. The solution was made isotonic again with Hank's balanced salt solution at 2-fold concentration, and centrifuged at 1000 rpm for 10 minutes. A procedure of resuspension of the precipitates in the Hank's balanced salt solution and centrifugation was repeated twice to obtain neutrophils. The obtained guinea pig neutrophils were suspended in Hank's balanced salt solution, and the leukocyte number was counted by a blood cell counter (Sysmex K-2000). A suspension diluted with Hank's balanced salt solution to 2×10^6 cells/ml was used for the experiment as a cell suspension.
1 ml of the-cell suspension and 10 μl of a solution of test substance at a known concentration (in a control, keratan sulfate oligosaccharide was not added) were mixed, preincubated at 37° C. for 1 hour, and 50 μl of 1.6 mM cytochrome C solution and 100 μl of 0.1 mM FMLP solution were successively added thereto and mixed. The mixture was incubated at 37° C. for 10 minutes, and the reaction was stopped by cooling with ice. The reaction mixture was centrifuged at 3000 rpm for 5 minutes, and absorbance of the supernatant was measured at a wavelength of 550 nm. All of the aforementioned procedures except for the incubation were performed with ice cooling.

Row | Molecule | body weight thereafter [1] | body weight on the next day of the administration [1] | general condition immediately after the administration [1] | death [1] | anaphylatic reaction after induction [2] | relative inhibition rate to the control of O2− generation [3] [%] | suppression of O2− generation by neutrophils (in words) [3]
1 | CC(=O)N[C@@H]1[C@@H](O)[C@H](O[C@@H]2O[C@H](COS(=O)(=O)[O-])[C@H](O)[C@H](O[C@@H]3O[C@H](COS(=O)(=O)[O-])[C@@H](O)[C@H](O)[C@H]3NC(C)=O)[C@H]2O)[C@@H](COS(=O)(=O)[O-])O[C@H]1O.[Na+].[Na+].[Na+] [Compound G4L4, O-(2-Acetamido-2-deoxy-6-O-sulfo-β-D-glucopyranosyl)-(1→3)-O-(6-O-sulfo-β-D-galactopyranosyl)-(1→4)-O-2-acetamido-2-deoxy-6-O-sulfo-β-D-glucopyranose Trisodium Salt] | favorable body weight increase | slight weight loss | paralytic gait was observed for every mouse | No death was observed | No anaphylatic reaction was observed | 57.1 | markedly suppressed
2 | CC(=O)N[C@H]1[C@H](O[C@@H]2[C@@H](O)[C@H](O)O[C@H](COS(=O)(=O)[O-])[C@@H]2O)O[C@H](COS(=O)(=O)[O-])[C@@H](O)[C@@H]1O.[Na+].[Na+] [Compound K4, O-(2-Acetamido-2-deoxy-6-O-sulfo-β-D-glucopyranosyl)-(1→3)-O-6-O-sulfo-β-D-galactopyranose Disodium Salt] | favorable body weight increase | slight weight loss | paralytic gait was observed for every mouse | No death was observed | No anaphylatic reaction was observed | 44.7 | markedly suppressed
3 | CC(=O)NC1C(O)OC(COS(=O)(=O)[O-])C(OC2OC(COS(=O)(=O)[O-])C(O)C(OC3OC(COS(=O)(=O)[O-])C(OC4OC(COS(=O)(=O)[O-])C(O)C(O)C4O)C(O)C3NC(C)=O)C2O)C1O.[Na+].[Na+].[Na+].[Na+] (centres unmarked) [Compound L4L4, reference compound] |  |  |  |  |  | 50.6 | markedly suppressed
4 | OVA: ovalbumin, positive control in the antigenicity test (protein, UniProt P01012 2-386, looked up) Ovalbumin: GSIGAASMEFCFDVFKELKVHHANENIFYCPIAIMSALAMVYLGAKDSTRTQINKVVRFDKLPGFGDSIEAQCGTSVNVHSSLRDILNQITKPNDVYSFSLASRLYAEERYPILPEYLQCVKELYRGGLEPINFQTAADQARELINSWVESQTNGIIRNVLQPSSVDSQTAMVLVNAIVFKGLWEKAFKDEDTQAMPFRVTEQESKPVQMMYQIGLFRVASMASEKMKILELPFASGTMSMLVLLPDEVSGLEQLESIINFEKLTEWTSSNVMEERKIKVYLPRMKMEEKYNLTSVLMAMGITDVFSSSANLSGISSAESLKISQAVHAAHAEINEAGREVVGSAEAGVDAASVSEEFRADHPFLFCIKHIATNAVLFFGRCVSP |  |  |  |  | showed anaphylatic reaction |  | 
